Assays:
Assay type in all cases: in vivo
[1] = test system: ryegrass, Italian (Italian ryegrass, Lolium multiflorum); experiment: Test A preemergence, Italian ryegrass; settings: Lolium multiflorum, pre-emergence, 240 h, Preemergence, 0 to 100 scale (0 no effect, 100 complete control), read-out: Plant response rating, Ryegrass, Italian; for pest or weed control at 125 g/ha: 125 g ai/ha
In short: (§1)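 Plants grown in pots of loam blended with sand were treated either before emergence, via directed soil spray, or after emergence at the one- to two-leaf stage. Following about 10 days in the greenhouse, each treatment was visually compared with untreated controls and rated from 0 (no effect) to 100 (complete control).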

[2] = test system: galium (catchweed bedstraw, Galium aparine); experiment: Test A postemergence, galium; settings: Galium, post-emergence, 240 h, postemergence, 0 to 100 scale, 0 is no effect, 100 is complete control, approximately 10 days, read-out: Plant response rating, Galium; for pest or weed control at 125 g/ha: 125 g ai/ha
In short: as §1

[3] = test system: sedge, umbrella (small-flower umbrella sedge, Cyperus difformis); experiment: Test B flooded paddy test, umbrella sedge; settings: Cyperus difformis; 250 g ai/ha, Flood; visual rating after 13 to 15 days; scale 0 to 100, 0 is no effect, 100 is complete control; read-out: Plant response rating, Sedge, Umbrella
In short: (§2)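 Plants grown to 2-leaf stage, pots flooded to 3 cm above soil and compound applied directly to paddy water, depth maintained throughout. After 13-15 days in greenhouse, visual rating against untreated controls on 0-100 scale (0 no effect, 100 complete control).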

[4] = test system: blackgrass (Alopecurus myosuroides); experiment: Test A postemergence, blackgrass; settings: Alopecurus myosuroides, post-emergence, 240 h, postemergence, 0 to 100 scale, 0 is no effect, 100 is complete control, approximately 10 days, read-out: Plant response rating, Blackgrass; for pest or weed control at 125 g/ha: 125 g ai/ha
In short: as §1

[5] = test system: barnyardgrass (Echinochloa crus-galli); experiment: Test A preemergence, barnyardgrass; settings: Echinochloa crus-galli, pre-emergence, 240 h, Preemergence, 0 to 100 scale (0 no effect, 100 complete control), read-out: Plant response rating, Barnyardgrass; for pest or weed control at 125 g/ha: 125 g ai/ha
In short: as §1

[6] = test system: barnyardgrass (Echinochloa crus-galli); experiment: Test B flooded paddy test, barnyardgrass; settings: Echinochloa crus-galli; 250 g ai/ha, Flood; visual rating after 13 to 15 days; scale 0 to 100, 0 is no effect, 100 is complete control; read-out: Plant response rating, Barnyardgrass
In short: as §2

kochia (Kochia scoparia) [7] = experiment: Test A preemergence, kochia; settings: Bassia scoparia, pre-emergence, 240 h, Preemergence, 0 to 100 scale (0 no effect, 100 complete control), read-out: Plant response rating, Kochia; for pest or weed control at 125 g/ha: 125 g ai/ha
In short: as §1

[8] = test system: wheat (Triticum aestivum); experiment: Test A postemergence, wheat; settings: Triticum aestivum, post-emergence, 240 h, postemergence, 0 to 100 scale, 0 is no effect, 100 is complete control, approximately 10 days, read-out: Plant response rating, Wheat; for plant injury at 125 g/ha: 125 g ai/ha
In short: as §1

kochia (Kochia scoparia) [9] = experiment: Test A postemergence, kochia; settings: Bassia scoparia, post-emergence, 240 h, postemergence, 0 to 100 scale, 0 is no effect, 100 is complete control, approximately 10 days, read-out: Plant response rating, Kochia; for pest or weed control at 125 g/ha: 125 g ai/ha
In short: as §1

[10] = test system: ragweed (common ragweed, Ambrosia elatior); experiment: Test A postemergence, ragweed; settings: Ambrosia artemisiifolia, post-emergence, 240 h, postemergence, 0 to 100 scale, 0 is no effect, 100 is complete control, approximately 10 days, read-out: Plant response rating, Ragweed; for pest or weed control at 125 g/ha: 125 g ai/ha
In short: as §1

[11] = test system: pigweed (Amaranthus retroflexus); experiment: Test A postemergence, pigweed; settings: Amaranthus retroflexus, post-emergence, 240 h, postemergence, 0 to 100 scale, 0 is no effect, 100 is complete control, approximately 10 days, read-out: Plant response rating, Pigweed; for pest or weed control at 125 g/ha: 125 g ai/ha
In short: as §1

[12] = test system: foxtail, giant (giant foxtail, Setaria faberii); experiment: Test A postemergence, giant foxtail; settings: Setaria faberi, post-emergence, 240 h, postemergence, 0 to 100 scale, 0 is no effect, 100 is complete control, approximately 10 days, read-out: Plant response rating, Foxtail, Giant; for pest or weed control at 125 g/ha: 125 g ai/ha
In short: as §1

[13] = test system: pigweed (Amaranthus retroflexus); experiment: Test A preemergence, pigweed; settings: Amaranthus retroflexus, pre-emergence, 240 h, Preemergence, 0 to 100 scale (0 no effect, 100 complete control), read-out: Plant response rating, Pigweed; for pest or weed control at 125 g/ha: 125 g ai/ha
In short: as §1

rice (Oryza sativa) = experiment: Test B flooded paddy test, rice; settings: Oryza sativa; 250 g ai/ha, Flood; visual rating after 13 to 15 days; scale 0 to 100, 0 is no effect, 100 is complete control; read-out: Plant response rating, Rice
In short: as §2

[14] = test system: ducksalad (Heteranthera limosa); experiment: Test B flooded paddy test, ducksalad; settings: Heteranthera limosa; 250 g ai/ha, Flood; visual rating after 13 to 15 days; scale 0 to 100, 0 is no effect, 100 is complete control; read-out: Plant response rating, Ducksalad
In short: as §2

Row | Compound | pest or weed control at 125 g/ha [1] | pest or weed control at 125 g/ha [2] | pest or weed control at 250 g/ha [3] | pest or weed control at 125 g/ha [4] | pest or weed control at 125 g/ha [5] | pest or weed control at 250 g/ha [6] | pest or weed control at 125 g/ha (kochia (Kochia scoparia) [7]) | plant injury at 125 g/ha [8] | pest or weed control at 125 g/ha (kochia (Kochia scoparia) [9]) | pest or weed control at 125 g/ha [10] | pest or weed control at 125 g/ha [11] | pest or weed control at 125 g/ha [12] | pest or weed control at 125 g/ha [13] | plant injury at 250 g/ha (rice (Oryza sativa)) | pest or weed control at 250 g/ha [14] | other results
1 | N#Cc1cccc(Oc2ncc(Cl)cn2)c1OC/C=C/C(F)(F)F [Compound 8, 3-[(5-chloro-2-pyrimidinyl)oxy]-2-[[(2E)-4,4,4-trifluoro-2-buten-1-yl]oxy]benzonitrile] | 30% | 90% | 100% | 40% | 100% | 0% | 100% | 10% | 100% | 10% | 100% | 90% | 100% | 0% | 75% | pest or weed control at 31 g/ha ([1]; 31 g ai/ha): 0%; pest or weed control at 31 g/ha ([2]; 31 g ai/ha): 40%; pest or weed control at 31 g/ha ([4]; 31 g ai/ha): 20%; pest or weed control at 31 g/ha ([5]; 31 g ai/ha): 30%; pest or weed control at 31 g/ha (kochia (Kochia scoparia) [7]; 31 g ai/ha): 20%; plant injury at 31 g/ha ([8]; 31 g ai/ha): 0%; pest or weed control at 31 g/ha (kochia (Kochia scoparia) [9]; 31 g ai/ha): 80%; pest or weed control at 31 g/ha ([10]; 31 g ai/ha): 0%; pest or weed control at 31 g/ha ([11]; 31 g ai/ha): 90%; pest or weed control at 31 g/ha ([12]; 31 g ai/ha): 20%; pest or weed control at 31 g/ha ([13]; 31 g ai/ha): 100%
2 | N#Cc1cccc(Oc2ncc(Cl)cn2)c1OCC(F)(F)C(F)(F)F [Compound 10, 3-[(5-chloro-2-pyrimidinyl)oxy]-2-(2,2,3,3,3-pentafluoropropoxy)benzonitrile] | 40% | 90% | 85% | 90% | 100% | 50% | 100% | 30% | 100% | 0% | 100% | 100% | 100% | 20% | 70% | pest or weed control at 500 g/ha ([1]; 500 g ai/ha): 100%; pest or weed control at 500 g/ha ([2]; 500 g ai/ha): 100%; pest or weed control at 500 g/ha ([4]; 500 g ai/ha): 100%; pest or weed control at 500 g/ha ([5]; 500 g ai/ha): 100%; pest or weed control at 500 g/ha (kochia (Kochia scoparia) [7]; 500 g ai/ha): 100%; plant injury at 500 g/ha ([8]; 500 g ai/ha): 90%; pest or weed control at 500 g/ha (kochia (Kochia scoparia) [9]; 500 g ai/ha): 100%; pest or weed control at 500 g/ha ([10]; 500 g ai/ha): 50%; pest or weed control at 500 g/ha ([11]; 500 g ai/ha): 100%; pest or weed control at 500 g/ha ([12]; 500 g ai/ha): 100%; pest or weed control at 500 g/ha ([13]; 500 g ai/ha): 100%

From patent publication US10485235B2, “Aryloxypyrimidinyl ethers as herbicides” (FMC Corporation, priority 2015, dated 2019)
